Seven molecules from patent publication US10449168B2 (The University of Toledo, priority 2015, dated 2019) can be followed below.

What all share (assay type): biochemical
Assay [1] concerns the target Vibrio cholerae aspartate semialdehyde dehydrogenase (vcASADH). As to the kind of experiment: vcASADH kinetic assay: reverse direction, NADPH absorbance at 340 nm; Ki from Dixon plot assuming competitive inhibition against ASA. The settings on record: pH 8.6, r.t., 0.3 mM ASA, 1.5 mM NADP, 20 mM phosphate.
The target of assay [2] is Streptococcus pneumoniae aspartate semialdehyde dehydrogenase (spASADH) (Streptococcus pneumoniae, UniProt Q8DQ00). The experiment in a line: biochemical. As to conditions: relative to parent or neighbouring derivative.
Assay [3] concerns the target T1, Streptococcus pneumoniae aspartate semialdehyde dehydrogenase (spASADH) (Streptococcus pneumoniae, UniProt Q8DQ00).
T1 construct: homodimer from general knowledge
T1 sequence (Q8DQ00 1-358): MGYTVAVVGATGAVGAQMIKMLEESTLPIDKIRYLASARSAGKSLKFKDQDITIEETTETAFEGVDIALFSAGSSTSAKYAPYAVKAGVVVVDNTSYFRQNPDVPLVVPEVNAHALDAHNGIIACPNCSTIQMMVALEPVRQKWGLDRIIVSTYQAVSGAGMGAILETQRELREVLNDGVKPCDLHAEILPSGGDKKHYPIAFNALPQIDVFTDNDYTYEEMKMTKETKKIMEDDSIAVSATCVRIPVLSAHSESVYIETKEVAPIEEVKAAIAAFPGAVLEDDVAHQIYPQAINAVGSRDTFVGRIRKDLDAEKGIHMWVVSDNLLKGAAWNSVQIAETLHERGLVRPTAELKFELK
The experiment in a line: spASADH kinetic assay: reverse direction, NADPH absorbance at 340 nm; Ki from Dixon plot assuming competitive inhibition against ASA. As to conditions: pH 8.6, r.t., 0.15 mM ASA, 1.5 mM NADP, 20 mM phosphate.

In assay [4] the target is T2, Vibrio cholerae aspartate semialdehyde dehydrogenase (vcASADH) (Vibrio cholerae serotype O1, UniProt P23247).
T2 construct: made in house
The experiment in a line: biochemical. As to conditions: relative to parent or neighbouring derivative.

The target of assay [5] is T3, aspartate N-acetyltransferase (ANAT) (Homo sapiens, UniProt Q8N9F0).
T3 sequence (Q8N9F0 1-302): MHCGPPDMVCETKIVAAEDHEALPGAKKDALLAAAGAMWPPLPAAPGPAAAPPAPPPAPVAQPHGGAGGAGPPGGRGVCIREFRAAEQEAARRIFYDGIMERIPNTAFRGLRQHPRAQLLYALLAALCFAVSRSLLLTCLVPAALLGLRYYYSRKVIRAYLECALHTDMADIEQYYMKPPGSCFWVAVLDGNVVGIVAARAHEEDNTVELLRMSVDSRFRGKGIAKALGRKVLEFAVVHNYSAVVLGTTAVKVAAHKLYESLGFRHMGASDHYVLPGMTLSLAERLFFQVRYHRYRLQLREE
As to the kind of experiment: ANAT substrate selectivity (acetyl group acceptor). As to conditions: glutamate vs. aspartate as acetyl acceptor. An excerpt: ANAT is difficult to purify.

“Also recorded” adds a separate entry of the source.

T2 sequence (P23247 whole entry): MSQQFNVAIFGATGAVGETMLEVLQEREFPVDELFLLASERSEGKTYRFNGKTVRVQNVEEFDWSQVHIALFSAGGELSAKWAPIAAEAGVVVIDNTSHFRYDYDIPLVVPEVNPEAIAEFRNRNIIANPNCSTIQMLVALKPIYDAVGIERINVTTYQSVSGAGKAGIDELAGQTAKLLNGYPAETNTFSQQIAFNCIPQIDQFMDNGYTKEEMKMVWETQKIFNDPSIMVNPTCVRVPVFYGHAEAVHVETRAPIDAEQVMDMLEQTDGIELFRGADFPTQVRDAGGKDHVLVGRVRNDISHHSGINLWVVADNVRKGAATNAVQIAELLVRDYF

One may read the Ki as a dissociation constant, usually derived from enzyme kinetics or from competition with a known ligand. Lower therefore signals tighter binding. As for `C[C@H](NCc1ccc(C(=O)O)c(C(=O)O)c1)C(=O)O` [Compound 5, N-((2-methyl)carboxymethyl)-3,4-dicarboxybenzylamine], the Ki in assay [1] (FIG. 4, Table 1) was determined as 609 ± 23 µM; in assay [3] (FIG. 4, Table 1) it was 296 ± 26 µM. Also, the “inhibition / binding affinity for spASADH (in words)” value in assay [2] is listed as “no appreciable effect on the binding affinity; also recorded: did not lead to enhanced affinity”. Further, the “inhibition / binding affinity for vcASADH (in words)” value in assay [4] is recorded as “no appreciable effect on the binding affinity”.
In the case of `O=C(O)c1ccc(CN[C@@H](CO)C(=O)O)cc1C(=O)O` [Compound 6, N-((2-hydroxymethyl)carboxymethyl)-3,4-dicarboxybenzylamine], the Ki is 654 ± 22 µM in assay [1] (FIG. 4, Table 1) and 324 ± 24 µM in assay [3] (FIG. 4, Table 1). Moreover, the “inhibition / binding affinity for spASADH (in words)” value in assay [2] was “no appreciable effect on the binding affinity; also recorded: did not lead to enhanced affinity”. Besides, in assay [4], the “inhibition / binding affinity for vcASADH (in words)” value is recorded as “no appreciable effect on the binding affinity”.
Turning to `O=C(O)CN(Cc1ccc(C(=O)O)c(C(=O)O)c1)Cc1ccccc1C(F)(F)F` [Compound 24, N-(2-trifluoromethylbenzyl)-N-carboxymethyl-3,4-dicarboxybenzylamine], the Ki amounted to 727 ± 60 µM in assay [1] (FIG. 5, Table 2) and 509 ± 29 µM in assay [3] (FIG. 5, Table 2). The “inhibition / binding affinity for spASADH (in words)” value in assay [2] is listed as “did not alter the affinity”. In assay [4], the “inhibition / binding affinity for vcASADH (in words)” value is “did not alter the affinity”.
With `O=C(O)CN(Cc1cccc(C(F)(F)F)c1)Cc1ccc(C(=O)O)c(C(=O)O)c1` [Compound 25, N-(3-trifluoromethylbenzyl)-N-carboxymethyl-3,4-dicarboxybenzylamine], the Ki in assay [1] (FIG. 5, Table 2) came to 678 ± 36 µM; in assay [3] (FIG. 5, Table 2), 441 ± 27 µM. Besides, the “inhibition / binding affinity for spASADH (in words)” value in assay [2] was “did not alter the affinity”. In addition, the “inhibition / binding affinity for vcASADH (in words)” value in assay [4] is listed as “did not alter the affinity”.
Turning to `O=C(O)CN(Cc1ccc(C(=O)O)c(C(=O)O)c1)Cc1ccccc1OC(F)(F)F` [Compound 27, N-(2-trifluoromethyoxybenzyl)-N-carboxymethyl-3,4-dicarboxybenzylamine], the Ki in assay [1] (FIG. 5, Table 2) came to 708 ± 47 µM; in assay [3] (FIG. 5, Table 2), 540 ± 32 µM. Also, the “inhibition / binding affinity for spASADH (in words)” value in assay [2] is listed as “did not alter the affinity”. In assay [4], the “inhibition / binding affinity for vcASADH (in words)” value is recorded as “did not alter the affinity”.
On to `O=C(O)CN(Cc1cccc(OC(F)(F)F)c1)Cc1ccc(C(=O)O)c(C(=O)O)c1` [Compound 28, N-(3-trifluoromethoxybenzyl)-N-carboxymethyl-3,4-dicarboxybenzylamine], for which the inhibitory constant (Ki) in assay [1] (FIG. 5, Table 2) came out at 684 ± 35 µM; in assay [3] (FIG. 5, Table 2), 427 ± 31 µM. Also, the “inhibition / binding affinity for spASADH (in words)” value in assay [2] is listed as “did not alter the affinity”. For the same molecule, the “inhibition / binding affinity for vcASADH (in words)” value in assay [4] is given as “did not alter the affinity”.
In the case of `N[C@@H](CCC(=O)O)C(=O)O` [glutamate], the “catalytic efficiency relative to that of the physiological substrate” value in assay [5] is reported as “less than 1%”.
